The text below walks through data of patent publication US10919902B2, “Hetero-halo inhibitors of histone deacetylase” (Alkermes, Inc., priority 2015, dated 2021).

For this test, the target named is recombinant human HDACs (Homo sapiens). Briefly: HDAC enzymatic assay. Type of test: biochemical. The settings on record: 5 nM HDAC enzyme, 5 h pre-incubation, 17 h reaction at 25° C., isoform not given. The method, then: All recombinant human HDACs were purchased from BPS Bioscience. The substrate, FAM-TSRHK(AC)KL-CONH, was synthesized at NanoSyn. Final assay reactions contained 100 mM HEPES (pH 7.5), 50 mM KCl, 0.1% BSA, 0.01% Triton X-100, 1% DMSO, 1 uM substrate and 5 nM HDAC enzyme. Enzyme and compounds were pre-incubated at 25° C. for 5 hours and reactions were initiated by addition of substrate. 10 uL reactions were incubated for 17 hours at 25° C. and terminated by the addition of 40 uL of buffer containing 100 mM HEPES (pH 7.5), 0.1% BSA, 0.01% Triton X-100 and 0.05% SDS. Substrate and product peptides present in each sample were separated electrophoretically using the LabChip 3000 capillary electrophoresis instrument. Change in the relative fluorescence intensity of the substrate and product peaks reflects enzyme activity. Reaction progress was determined as the product to sum ratio (PSR):P/(S+P), where P is the peak height of the product peptide and S is the peak height of the substrate peptide. Reactions were performed in duplicate at 12 concentrations, (3× serial dilutions starting at 30 uM). IC50 values were calculated using a 4 Parameter Logistic Model.

Where two headings read alike, the source gives them in different places.

In the case of `CN1CCCC2(CCN(C(=O)Nc3nc(-c4cccnc4)ccc3N)C2)C1` (stereo not drawn) [Compound 211], the IC50 (read-out: IC50) is above 5000 nM. For `CN1CCN(Cc2cccc3c2CN(C(=O)Nc2nc(-c4ccc(F)cc4)ccc2N)C3)CC1` [Compound 178], the IC50 (read-out: IC50) is above 5000 nM. On the same count and under the same terms, the result for `Nc1ccc(-c2ccc(F)cc2)nc1NC(=O)N1Cc2cnc(N3CCC3)cc2C1` [Compound 147] reads 100 to 500 nM; that for `CN(C)CCN1CC2CN(C(=O)Nc3nc(-c4ccc(F)cc4)ccc3N)CC2C1` (stereo not drawn) [Compound 166], 500 to 5000 nM. The same measure, in the same setting: for `CN1CCc2sc(C(=O)Nc3nc(-c4ccc(F)cc4)ccc3N)nc2C1` [Compound 153] the value was 100 to 500 nM; for `Nc1ccc(-c2ccc(F)cc2)nc1NC(=O)N1CC2COCC2C1` (stereo not drawn) [Compound 392], 500 to 5000 nM; for `Cc1cnc(C(=O)Nc2nn(-c3ccccc3)cc2N)s1` [Compound 126], 500 to 5000 nM. Same read-out and setting: the result for `CN1CCC(N2CC3CN(C(=O)Nc4nc(-c5ccc(F)cc5)ccc4N)CC3C2)CC1` (stereo not drawn) [Compound 169] reads 500 to 5000 nM. Take `CN1CCC2(CC1)CCN(C(=O)Nc1nc(-c3cccnc3)ccc1N)C2` [Compound 210]: the IC50 (read-out: IC50) was above 5000 nM. Consider `COCc1ccc2c(c1)CN(C(=O)Nc1nc(-c3cccnc3)ccc1N)C2` [Compound 393], for which the IC50 (read-out: IC50) was 500 to 5000 nM. Same read-out and setting: the result for `Nc1ccc(-c2ccc(F)cc2)nc1NC(=O)N1CC2CC(N3CC(F)C3)CC2C1` (stereo not drawn) [Compound 188] reads 500 to 5000 nM.

With `Nc1ccc(-c2ccc(F)cc2)nc1NC(=O)N1CC2CN(CCF)CC2C1` (stereo not drawn) [Compound 183], the IC50 (read-out: IC50) was above 5000 nM. As to `CN1CC(CC(=O)Nc2nc(-c3ccc(F)cc3)ccc2N)C1` [Compound 376], the IC50 (read-out: IC50) was above 5000 nM.

For `Nc1ccc(-c2cccnc2)nc1NC(=O)N1CCC2(CCCNC2)C1` (stereo not drawn) [Compound 171], the IC50 (read-out: IC50) was above 5000 nM. Same read-out and setting: the result for `CN1CCN(Cc2ccc3c(c2)CN(C(=O)Nc2nn(-c4ccccc4)cc2N)C3)CC1` [Compound 353] reads 500 to 5000 nM; that for `Nc1ccc(-n2cccn2)nc1NC(=O)N1CC2CC(N3CC(F)C3)CC2C1` (stereo not drawn) [Compound 190], above 5000 nM; that for `Nc1ccc(-c2cccs2)nc1NC(=O)N1Cc2nccnc2C1` [Compound 156], 100 to 500 nM.

Take `Cn1cc2c(n1)CN(C(=O)Nc1nc(-c3ccc(F)cc3)ccc1N)C2` [Compound 257]: the IC50 was in the range of 100 to 500 nM. `CN1CC(CN2CC3CC(C(=O)Nc4nc(-c5ccc(F)cc5)ccc4N)CC3C2)C1` (stereo not drawn) [Compound 256]: the IC50 (read-out: IC50) is 500 to 5000 nM. Same read-out and setting: the result for `Nc1ccc(-c2ccc(F)cc2)nc1NC(=O)N1C[C@@H]2[C@@H](CN3CCC3)[C@@H]2C1` [Compound 270] reads above 5000 nM; that for `CN1CCN(c2ccc3c(c2)CN(C(=O)Nc2nc(-c4ccc(F)cc4)ccc2N)C3)CC1` [Compound 374], 100 to 500 nM. With `CN1CCN(C(=O)Nc2nn(-c3ccccc3)cc2N)CC1` [Compound 361], the IC50 (read-out: IC50) is above 5000 nM. Still for that read-out and setting: the result for `Nc1ccc(-c2ccc(F)cc2)nc1NC(=O)N1CC2CCC(C1)O2` [Compound 406] reads above 5000 nM; that for `Nc1ccc(-n2cccn2)nc1NC(=O)N1Cc2ccncc2C1` [Compound 369], 500 to 5000 nM. Still for that read-out and setting: for `CN(C)Cc1ccc2c(c1)CN(C(=O)Nc1nc(-c3cccs3)ccc1N)C2` [Compound 409] the value was 100 to 500 nM. On the same count and under the same terms, the result for `Nc1ccc(-c2ccc(OC(F)F)cc2)nc1NC(=O)N1CCCC1` [Compound 232] reads 500 to 5000 nM; that for `COc1ccc(-c2ccc(N)c(NC(=O)N3Cc4cc(F)cnc4C3)n2)cc1` [Compound 187], 500 to 5000 nM.

For the molecule `Nc1ccc(-c2ccc(F)cc2)nc1NC(=O)N1Cc2cccc(F)c2C1` [Compound 259], for the setting “read-out: IC50”, the IC50 was in the range of 100 to 500 nM.

`Nc1ccc(-c2cccs2)nc1NC(=O)N1Cc2ccc(CN3CCCC3)cc2C1` [Compound 410]: under “read-out: IC50”, the IC50 lay in the range of 100 to 500 nM. The same measure, in the same setting: for `Nc1cn(-c2ccc(F)cc2)nc1NC(=O)N1CCN(C(=O)[C@@H]2C[C@H]2c2ccccc2)CC1` [Compound 125] the value was 500 to 5000 nM.

Consider `CN1CCC(N2CCC(C(=O)Nc3nc(-c4ccc(F)cc4)ccc3N)CC2)CC1` [Compound 368], for which, under “read-out: IC50”, the IC50 lay within 500 to 5000 nM.

As to `CN1CC(Cn2ncc3c2CN(C(=O)Nc2nc(-c4ccc(F)cc4)ccc2N)C3)C1` [Compound 244], under “read-out: IC50”, the IC50 is 500 to 5000 nM.

For `Nc1ccc(-c2ccccc2)nc1NC(=O)c1cn2c(n1)CNCC2` [Compound 208], where the note is “read-out: IC50”, the IC50 was 500 to 5000 nM.

As to `Nc1ccc(-c2ccc(F)cc2)nc1NC(=O)C1[C@H]2CN(C3COC3)C[C@@H]12` (stereo partly drawn) [Compound 239], where the note is “read-out: IC50”, the IC50 was above 5000 nM. On the same count and under the same terms, for `Nc1ccc(-c2ccccc2)nc1NC(=O)N1CC2CN(C3COC3)CC2C1` (stereo not drawn) [Compound 199] the value was above 5000 nM; for `Nc1ccc(-c2ccccc2)nc1NC(=O)C1CN(c2ccccn2)C1` [Compound 195], above 5000 nM; for `CN1CCC(c2ccc3c(c2)CN(C(=O)Nc2nn(-c4ccccc4)cc2N)C3)CC1` [Compound 383], 100 to 500 nM. On the same count and under the same terms, the result for `CN1CCN(c2ccc3c(c2)CN(C(=O)Nc2nn(-c4ccccc4)cc2N)C3)CC1` [Compound 352] reads 500 to 5000 nM; that for `COc1cc2c(cn1)CN(C(=O)Nc1nc(-c3ccc(F)cc3)ccc1N)C2` [Compound 260], 100 to 500 nM; that for `CN(C)Cc1ccc2c(c1)CN(C(=O)Nc1nn(-c3ccccc3)cc1N)C2` [Compound 351], 100 to 500 nM. The same measure, in the same setting: the result for `CN1CC(N2C[C@@H]3C(C(=O)Nc4nc(-c5ccc(F)cc5)ccc4N)[C@@H]3C2)C1` (stereo partly drawn) [Compound 241] reads above 5000 nM; that for `Nc1ccc(-c2ccccc2)nc1NC(=O)C1CCN(Cc2cccnc2)CC1` [Compound 377], above 5000 nM; that for `Nc1ccc(-c2ccc(F)cc2)nc1NC(=O)N1Cc2cc(CN3CC(F)C3)cnc2C1` [Compound 275], 100 to 500 nM. Take `CN(C)Cc1cnc2c(c1)CN(C(=O)Nc1nc(-c3cccnc3)ccc1N)C2` [Compound 161]: the IC50 (read-out: IC50) fell in the range of 100 to 500 nM.

On to `CN(C)Cc1ccc(C2CN(C(=O)Nc3nc(-c4ccc(F)cc4)ccc3N)C2)cc1` [Compound 146], for which the IC50 (read-out: IC50) lay within 100 to 500 nM. Same read-out and setting: for `Nc1ccc(-c2ccc(F)cc2)nc1NC(=O)N1Cc2cc(N3CCOCC3)cnc2C1` [Compound 158] the value was 100 to 500 nM.

For the molecule `Nc1ccc(-c2ccccc2)nc1NC(=O)CN1CCn2cncc2C1` [Compound 194], the IC50 (read-out: IC50) is above 5000 nM.

`CN1CC(Cn2cc3c(n2)CN(C(=O)Nc2nc(-c4ccc(F)cc4)ccc2N)C3)C1` [Compound 245]: the IC50 (read-out: IC50) was 100 to 500 nM. On to `Nc1ccc(-c2ccc(F)cc2)nc1NC(=O)N1Cc2ccc(CN3CCC(F)(F)C3)cc2C1` [Compound 386], for which the IC50 (read-out: IC50) was 100 to 500 nM. The same measure, in the same setting: for `Cc1ccc(C2CN(C(=O)Nc3nc(-c4ccc(F)cc4)ccc3N)C2)cc1` [Compound 170] the value was 500 to 5000 nM; for `Nc1ccc(-c2ccco2)nc1NC(=O)N1CC2CN(Cc3ccccc3F)CC2C1` (stereo not drawn) [Compound 175], above 5000 nM; for `Nc1ccc(-c2ccc(F)cc2)nc1NC(=O)N1Cc2cc(F)cnc2C1` [Compound 186], 500 to 5000 nM. Still for that read-out and setting: for `CN1CCN(Cc2cnc3c(c2)CN(C(=O)Nc2nc(-c4ccc(F)cc4)ccc2N)C3)CC1` [Compound 168] the value was 100 to 500 nM; for `CN1CC2CN(C(=O)Nc3nc(-c4ccc(F)cc4)ccc3N)CC2C1` (stereo not drawn) [Compound 201], above 5000 nM; for `CN1CC(C(=O)Nc2nc(-c3ccc(F)cc3)ccc2N)C1` [Compound 204], above 5000 nM. On to `CN1CC(CN2C[C@@H]3[C@H](C2)[C@H]3C(=O)Nc2nc(-c3ccc(F)cc3)ccc2N)C1` [Compound 268], for which the IC50 (read-out: IC50) was above 5000 nM. Still for that read-out and setting: the result for `Cn1cc(CN2CCC3(CC2)CCN(C(=O)Nc2nc(-c4cccnc4)ccc2N)C3)cn1` [Compound 215] reads above 5000 nM; that for `Nc1ccc(-c2ccc(F)cc2)nc1NC(=O)N1CC2CC(N3CCC3)CC2C1` (stereo not drawn) [Compound 143], 500 to 5000 nM; that for `Nc1ccc(-c2ccc(F)cc2)nc1NC(=O)N1Cc2cc(CN3CCC(F)(F)C3)cnc2C1` [Compound 273], 100 to 500 nM. On the same count and under the same terms, for `Nc1ccc(-c2ccccc2)nc1NC(=O)N1CC2CC(NC3COC3)CC2C1` (stereo not drawn) [Compound 191] the value was 500 to 5000 nM; for `Nc1ccc(-c2ccco2)nc1NC(=O)N1Cc2ccncc2C1` [Compound 372], 500 to 5000 nM. The same measure, in the same setting: for `CN1CCC(c2cnc3c(c2)CN(C(=O)Nc2nc(-c4cccnc4)ccc2N)C3)CC1` [Compound 265] the value was 500 to 5000 nM. As for `Nc1ccc(-c2ccc(F)cc2)nc1NC(=O)N1Cc2cccc(N3CCCC3)c2C1` [Compound 249], the IC50 (read-out: IC50) is above 5000 nM.

Regarding `Nc1ccc(-c2ccco2)nc1NC(=O)N1CC2CC(N3CC(F)C3)CC2C1` (stereo not drawn) [Compound 189], the IC50 (read-out: IC50) was above 5000 nM. Still for that read-out and setting: for `Cc1cnc(C(=O)Nc2nc(-c3ccc(F)cc3)ccc2N)s1` [Compound 226] the value was 100 to 500 nM; for `CN1CCN(Cc2ccc3c(c2)CN(C(=O)Nc2nc(-c4ccc(F)cc4)ccc2N)C3)CC1` [Compound 367], 100 to 500 nM.

In the case of `Cn1cc(CN2CCCC3(CCN(C(=O)Nc4nn(-c5ccc(F)cc5)cc4N)C3)C2)cn1` (stereo not drawn) [Compound 123], the IC50 (read-out: IC50) is above 5000 nM. Same read-out and setting: for `CN(C1COC1)C1CC2CN(C(=O)Nc3nc(-c4ccc(F)cc4)ccc3N)CC2C1` (stereo not drawn) [Compound 248] the value was 500 to 5000 nM. With `Nc1ccc(-c2ccc(F)cc2)nc1NC(=O)N1CCC(C(F)(F)F)C1` (stereo not drawn) [Compound 390], the IC50 (read-out: IC50) fell in the range of 500 to 5000 nM.

The IC50 is the midpoint of a concentration-inhibition curve.
